Laboratory results from patent US11660054B2, “Medical diagnostic and treatment systems and their methods of use” (Biogen MA Inc., priority 2016, dated 2023).

System: β-amyloid neuritic plaque
Assay: Radiometer cap detection of head radiation signals after IV amyloid tracer, concurrent PET
Format: in vivo, human
Method: Tests were conducted using a series of radiometers positioned around subjects heads and a standard PET camera using the amyloid tracer ^18F-fluorbetapir in subjects with probable Alzheimer's disease (AD subjects) and healthy control volunteers (HC). ^18F-fluorbetapir is a radioactive diagnostic agent for positron emission tomography (PET) imaging of the brain to estimate β-amyloid neuritic plaque density in adult patients with cognitive impairment who are being evaluated for AD. PET imaging targeting β-amyloid neuritic plaque deposition has already begun playing a role in identifying individuals very early in the course of AD and monitoring progression of the disease over the course of the treatment with investigational therapeutics.
During testing, ^18F-fluorbetpir was administered intravenously as a bolus injection followed by a saline flush. […] Each subject received a single injection of the radioligand with a dose of no more than 10 mCi in a maximum volume of 10 mL.
The device included a cap fitted with up to 5 detectors at various 10-20 EEG positions which was placed on the subject's head. The subjects were asked to avoid any movements of the head and to remain immobilized as much as possible. Additional detectors were secured to one ankle and the chin to obtain an indirect measure of the activity in the blood, and to monitor activity in the head respectively. […] Detector specific count rates and total counts were measured continuously for up to 3 hours. The count rate and total counts were compared in the AD subjects and HC subjects to extrapolate qualitative and quantitative pattern differences. […]
For processing purposes, detected radiation signals were decay corrected to the time of injection. The counts were recorded in 4 second intervals, which were then median filtered using a 2 minute window. […]
To quantify this, a constrained bi-exponential model was fit to the 10-65 minute period of each of the detectors, as well as the sum of the brain signals (excluding the chin, ankle and tip top detectors). […]

- ankle detector signal after injection (ankle detector, all subjects, IV bolus): steadily climbed
- alpha phase of bi-exponential fit, healthy versus AD subjects (bi-exponential fit of 10-65 minute period, alpha phase limited to 5-30 min half-life): faster alpha phase
- initial washout of signal in healthy subjects versus AD subjects (head detectors, healthy subjects): faster initial washout
SMILES: CNc1ccc(/C=C/c2ccc(OCCOCCOCCF)nc2)cc1 [^18F-fluorbetapir]
